Source: patent US20090312310A1 (priority 2006, published 2009)

Molecular target: T1, Mdm2/p53 binding (Homo sapiens, UniProt Q00987, L33E)
T1 construct: having Mdm2 amino acids at positions 25 to 108
Test: Mdm2/p53 binding assay (HTRF, His-p53 / GST-Mdm2)
Conditions: His-p53 (aa 1-132) and GST-Mdm2 (aa 25-108, L33E), 6.25 nM each; 25° C., 1 hour
Experimental: Next, a test compound was diluted with protein buffer solution containing 10% DMSO, and this test compound dilution was added in an amount of 4 μL/well to the plate.
These dilutions were added in an amount of 8 μL/well (total reaction solution volume: 20 μl/well). Then, the plate was left at 25° C. for 1 hour.
C (correction factor)=(A−BI)/D
The R value calculated from the well supplemented with His-p53, GST-Mdm2, the test compound, and each antibody was defined as R (sample). The R value calculated from the well supplemented with His-p53, GST-Mdm2, and each antibody but without the test compound was defined as R (control). The R value calculated from the well supplemented with GST-Mdm2, the test compound, and each antibody but without His-p53 was defined as R (background). T/C was calculated from the formula shown below. An IC50 value for Mdm2/p53 binding was calculated by sigmoid fitting using Prism (GraphPad Software).
T/C=(R (sample)−R (background))/(R (control)−R (background))

T1 sequence (Q00987 25-108 L33E, species assumed): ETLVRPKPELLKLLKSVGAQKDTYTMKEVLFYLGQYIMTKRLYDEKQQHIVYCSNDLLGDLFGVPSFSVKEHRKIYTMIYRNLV

Structure (SMILES)	IC50 [nM]
CC[C@@H]1CC[C@@H](C(=O)N2CCN(C(C)=O)[C@H](C)C2)N1C(=O)C1=C(C(C)C)N2C(=N[C@@](C)(c3ccc(Cl)cc3)[C@H]2c2ccc(Br)cc2)S1 [Example 155, (5R,6S)-2-{[(2S,5R)-2-{[(3R)-4-Acetyl-3-methylpiperazin-1-yl]carbonyl}-5-ethylpyrrolidin-1-yl]carbonyl}-5-(4-bromophenyl)-6-(4-chlorophenyl)-3-isopropyl-6-methyl-5,6-dihydroimidazo[2,1-b][1,3]thiazole]	30
CC(C)C1=C(C(=O)N(C)[C@H]2C[C@@H](O)C2)SC2=N[C@@](C)(c3ccc(Cl)cc3)[C@@H](c3ccc(Cl)cc3)N21 [Example 164, (5R,6S)-5,6-Bis(4-chlorophenyl)-N-(cis-3-hydroxycyclobutyl)-3-isopropyl-N,6-dimethyl-5,6-dihydroimidazo[2,1-b][1,3]thiazole-2-carboxamide]	84
CC(C)C1=C(C(=O)N2[C@H](C)CC[C@H]2C(=O)N2CCN(C)[C@H](C)C2)SC2=N[C@@](C)(c3ccc(Cl)cc3)[C@@H](c3ccc(Cl)c(F)c3)N21 [Example 167, (5R,6S)-5-(4-Chloro-3-fluorophenyl)-6-(4-chlorophenyl)-2-{[(2S,5R)-2-{[(3R)-3,4-dimethylpiperazin-1-yl]carbonyl}-5-methylpyrrolidin-1-yl]carbonyl}-3-isopropyl-6-methyl-5,6-dihydroimidazo[2,1-b][1,3]thiazole]	10
CC(C)C1=C(C(=O)N2[C@H](C)CC[C@H]2C(=O)N2CCN(C)[C@H](C)C2)SC2=N[C@@](C)(c3ccc(Cl)cc3)[C@@H](c3ccc(C(F)(F)F)cc3)N21 [Example 180, (5R,6S)-6-(4-Chlorophenyl)-2-{[(2S,5R)-2-{[(3R)-3,4-dimethylpiperazin-1-yl]carbonyl}-5-methylpyrrolidin-1-yl]carbonyl}-3-isopropyl-6-methyl-5-[4-(trifluoromethyl)phenyl]-5,6-dihydroimidazo[2,1-b][1,3]thiazole]	13
CC(C)C1=C(C(=O)N2[C@H](C)CC[C@H]2C(=O)N2CCN(CCO)[C@H](C)C2)SC2=N[C@@](C)(c3ccc(Cl)cc3)[C@@H](c3ccc(Cl)cc3)N21 [Example 204, 2-{(2R)-4-[(5R)-1-{[(5R,6S)-5,6-Bis(4-chlorophehyl)-3-isopropyl-6-methyl-5,6-dihydroimidazo[2,1-b][1,3]thiazol-2-yl]carbonyl}-5-methyl-L-prolyl]-2-methylpiperazin-1-yl}ethanol]	19
CC(C)C1=C(C(=O)N2CCC[C@H]2COC2CCN(C)CC2)SC2=N[C@@](C)(c3ccc(Cl)cc3)[C@@H](c3ccc(Cl)cc3)N21 [Example 211, (5R,6S)-5,6-Bis(4-chlorophenyl)-3-isopropyl-6-methyl-2-{[(2S)-2-{[(1-methylpiperidin-4-yl)oxy]methyl}pyrrolidin-1-yl]carbonyl}-5,6-dihydroimidazo[2,1-b][1,3]thiazole]	12
CC(C)C1=C(C(=O)N(C(C)C)[C@H]2C[C@H](N(C)C)C2)SC2=N[C@@](C)(c3ccc(Cl)cc3)[C@@H](c3ccc(Cl)cc3)N21 [Example 219, (5R,6S)-5,6-Bis(4-chlorophenyl)-N-[trans-3-(dimethylamino)cyclobutyl]-N,3-diisopropyl-6-methyl-5,6-dihydroimidazo[2,1-b][1,3]thiazole-2-carboxamide]	4
CC(C)C1=C(C(=O)N(C)C)SC2=N[C@@](C)(c3ccc(Cl)nc3)[C@@H](c3ccc(Cl)cc3)N21 [Example 220, (5R,6S)-5-(4-Chlorophenyl)-6-(6-chloropyridin-3-yl)-3-isopropyl-N,N,6-trimethyl-5,6-dihydroimidazo[2,1-b][1,3]thiazole-2-carboxamide]	76
CC(C)C1=C(C(=O)N2[C@H](C)CC[C@H]2C(=O)N2C[C@@H](N)[C@H](F)C2)SC2=N[C@@](C)(c3ccc(Cl)cc3)[C@@H](c3ccc(Cl)cc3)N21 [Example 240, (3R,4R)-1-[(5R)-1-{[(5R,6S)-5,6-Bis(4-chlorophenyl)-3-isopropyl-6-methyl-5,6-dihydroimidazo[2,1-b][1,3]thiazol-2-yl]carbonyl}-5-methyl-L-prolyl]-4-fluoropyrrolidin-3-amine]	13
